Values joined by “and” are separate entries in the source; they are usually repeats but may differ in a detail not shown here. Equal values may be shown once.
Assays:
[1] = system: Adriamycin (ADR)-induced nephropathy in Balb/c mice; assay: Adriamycin-induced nephropathy, main study: albumin/creatinine ratio and body weight
human podocytes = assay: apoAI-mediated cholesterol efflux in human podocytes; assay type: cell-based; details: for ApoA1-mediated cholesterol efflux (%) in podocytes: single experiments
Procedure: Cell lines were purchased from ATCC and subcultured for no more than passage 15, except for human podocytes, which were originally from Dr Jochen Reiser. Conditionally immortalized human podocytes were cultured under permissive conditions at 33 °C, in RPMI medium (Corning) containing 10% FBS (GIBCO), 1% penicillin/streptomycin, 0.01 mg/ml recombinant human insulin, 0.0055 mg/ml human transferrin (substantially iron-free), and 0.005 μg/ml sodium selenite (ITS, Corning). To induce differentiation, podocytes were cultured at 37 °C for 14 days in RPMI medium containing 10% FBS (GIBCO) and 1% penicillin/streptomycin. Differentiated podocytes were starved in RPMI-0.2% FBS for 18 h and then treated with 1 μM, 5 μM, and 10 μM of compounds freshly prepared in DMSO for 18 h at 37 °C as indicated.
Human podocytes differentiated for 13 days were labeled for 24 h at 37 °C in RPMI medium containing 2% FBS and [^3H]-cholesterol (1 μCi/ml, American Radiolabeled Chemicals). Cells were then washed 3 times with PBS and incubated with RPMI supplemented with 0.2% fat free-BSA (Sigma) with or without compounds for 18-h at 37 °C. The compounds were used at the following concentrations: Cpd C (1 μM), Cpd A (1 μM, 5 μM) and Cpd G (1 μM, 5 μM, 10 μM). Following the 18-h incubation, human apoAI (Calbiochem) was added to the media, (20 μg/mL final concentration) and the cells were incubated for another 18 h at 37 °C. Aliquots of medium collected before (T = 0 h) and after (T = 18 h) the addition of apoAI were centrifuged at 12,000 × g for 5 min and the radioactivity in the supernatant was counted by liquid scintillation. Cells were then washed with PBS, lysed 0.1% SDS, 0.1M NaOH and the radioactivity in the lysates was quantified by liquid scintillation. apoAI-mediated cholesterol efflux, expressed as %, was calculated as the amount of label released to the medium after adding apoAI (the difference in radioactivity in the medium before and after adding ApoA1) divided by the amount of total label in each well (radioactivity released to the media plus radioactivity in the lysed cells).

ABCA1 protein = assay: Cell fractionation: ABCA1 in plasma membrane and microsomal fractions of podocytes; assay type: cell-based, human; details: podocytes; Cpd A 5 µM, Cpd G 10 µM
Procedure: Lysates, or cell fractions were incubated in Laemmli buffer at 55 °C for 10 min under reducing conditions. A total of 30 μg of protein from cell lysates or one-third of the volume collected in cell fraction preparations was separated by SDS-PAGE in 4–20% gradient gels (Biorad) and proteins were then transferred to PVDF membranes. After blocking with 5% TBS-milk, membranes were probed with primary antibodies overnight at 4 °C. The following primary antibodies were used: mouse anti-ABCA1 (Abcam; 1:1000), rabbit anti-GAPDH antibody (Millipore; 1:10,000), mouse anti-actin (CP01, Millipore 1:10,000), anti-MEK, anti-ERp72, anti-V5 and anti-Na^+/K^+ ATPase (Cell Signaling; all 1:1000), and rabbit anti-OSBPL7 (Sigma; 1:1000). After washing, membranes were incubated with anti-rabbit or and anti-mouse IgG-HRP antibodies (Promega, 1:10,000). Signals were detected after incubation with Westernbright ECL HRP substrate (Advansta) and luminescence signals were captured with Azure C600 Gel Imaging workstation (Azure Biosystems Inc, USA) or X-ray films.
Differentiated podocytes were treated with compounds Cpd C (1 μM), Cpd A (5 μM), or Cpd G (10 μM) for 18 h, washed and then harvested in ice-cold PBS. Cells were centrifuged at 1000 × g for 5 min, the supernatant was carefully removed, and the pellet resuspended in hypotonic buffer (15 mM KCl, 1.5 mM MgCl2, 10 mM HEPES and 1 mM DTT) supplemented with a protease inhibitor cocktail (Roche). Cells were disrupted with a glass douncer, and sucrose was added to achieve final concentration of 227 mM. Cell lysates were centrifuged at 1000 × g for 30 min at 4 °C. The supernatant was then transferred to a new tube and centrifuged at 10,000 × g for 15 min at 4 °C. The pellet, containing the microsomal fraction was collected and the supernatant was transferred to a new tube and centrifuged at 100,000 × g for 1 h at 4 °C. The pelleted plasma membrane fraction was collected and the supernatant, containing the organelle-free cytosolic fraction, was concentrated in Vivaspin 500 filter columns. Western blot was performed using antibodies for ABCA1 and specific markers for each membrane fraction as described above. Na^+/K^+ ATPase was used to identify the plasma membrane fraction, ERp72 as a marker for the microsomal-enriched fraction, and MEK as the control for the non-membranous cytosolic fraction.

[2] = system: Adriamycin (ADR)-induced nephropathy in Balb/c mice; assay: ADR nephropathy: liver total cholesterol, cholesterol esters, triglycerides; assay type: in vivo, mouse
[3] = system: Adriamycin (ADR)-induced nephropathy in Balb/c mice; assay: ADR nephropathy: WBC, hemoglobin, hematocrit, ALT, AST; assay type: in vivo, mouse; details: ADR-induced nephropathy
[4] = 28 days treatment, 25th quartile
[5] = 28 days treatment, 75th quartile
[6] = 28 days treatment, group maximum
[7] = 28 days treatment, group median
[8] = 28 days treatment, group minimum
[9] = 28 days treatment, individual mouse values

O=C(N[C@@H]1CCCC[C@H]1O)c1ccc(OCC(F)(F)F)c(-c2ccc(Cl)c(Cl)c2)n1 [Cpd A]
Effect on weight loss ([1]; 28 days after ADR): substantially reduced weight loss | ACR, median ([1]; 28 days after ADR, Cpd A 30, Cpd G 100, Cpd C 10 mg/Kg, group median): 2.3 mg albumin/mg creatinine and 2.363 mg albumin/mg creatinine | Weight (d28) ([1]; animal weight when therapy finished, single animals): 19 and 21 and 18 and 15 and 20 | Weight Change (as % of weight at day 0), Median ([1]; day 28 after ADR, Cpd A 30, Cpd G 100, Cpd C 10 mg/Kg): 0% | Weight Change (as % of weight at day 0) ([1]; day 28 after ADR, Cpd A 30, Cpd G 100, Cpd C 10 mg/Kg, single animals): 0% and -5.3% and -4.5% and -6.3% and -25% and 5.6% | ACR values (mg Albumin / mg Creatinine) ([1]; spot urine 28 days after ADR, oral daily Cpd A 30, Cpd G 100, Cpd C 10 mg/Kg, single animals): 0.242 mg Albumin / mg Creatinine and 6.27 mg Albumin / mg Creatinine and 20.39 mg Albumin / mg Creatinine and 14.37 mg Albumin / mg Creatinine and 0.707 mg Albumin / mg Creatinine and 11.834 mg Albumin / mg Creatinine and 0.631 mg Albumin / mg Creatinine and 2.363 mg Albumin / mg Creatinine and 0.33 mg Albumin / mg Creatinine and 3.08 mg Albumin / mg Creatinine and 0.093 mg Albumin / mg Creatinine | Times lower ACR ([1]; vs ADR+V, 28 days, Cpd A 30, Cpd G 100 mg/kg/day): 8 times | ApoA1-mediated cholesterol efflux (%) in podocytes (human podocytes; 1 uM): 4.2% and 0.9% and 3.2% and 3.5% and 3.7% | ApoA1-mediated cholesterol efflux (%) in podocytes (human podocytes; 5 uM): 3.3% and 4.4% and 1.5% and 3.7% and 2.4% and 6.4% and 7.6% and 3.5% | Increase in apoAI-mediated cholesterol efflux vs. untreated cells (human podocytes; Cpd G 10 µM, Cpd A 5 µM, Cpd C 1 µM): ~2 fold | ABCA1 at the plasma membrane (ABCA1 protein): increased ABCA1 at the plasma membrane | ABCA1 in microsomal fractions (ABCA1 protein): did not increase ABCA1 in microsomal fractions | LIVER CHOLESTEROL ESTERS ([2]; ADR model, individual animals): 1.39 nmol CE/ mg protein and 2.25 nmol CE/ mg protein and 2.79 nmol CE/ mg protein and 8 nmol CE/ mg protein and 3.82 nmol CE/ mg protein and 8.05 nmol CE/ mg protein | LIVER TOTAL CHOLESTEROL ([2]; ADR model, individual animals): 120 nmol Cholesterol/ mg protein and 119 nmol Cholesterol/ mg protein and 149 nmol Cholesterol/ mg protein and 163 nmol Cholesterol/ mg protein and 112 nmol Cholesterol/ mg protein and 195 nmol Cholesterol/ mg protein | LIVER TRIGLICERIDES ([2]; ADR model, individual animals): 75 nmol Triglycerides/ mg protein and 54.7 nmol Triglycerides/ mg protein and 58 nmol Triglycerides/ mg protein and 69 nmol Triglycerides/ mg protein and 38 nmol Triglycerides/ mg protein and 54.5 nmol Triglycerides/ mg protein | Hepatic triglyceride content vs. vehicle-treated controls ([2]; ADR-challenged, 28 days): increased hepatic triglyceride content | ALT, Median (IQR) [3]: 256 (90.3-625) U/L | ALT, Range [3]: 88-766 U/L | AST, Median (IQR) [3]: 326 (213-500) U/L | AST, Range [3]: 200-685 U/L | HTC, Median (IQR) [3]: 54 (50-56) % | HTC, Range [3]: 47-62% | Hgb, Median (IQR) [3]: 13.6 g/dL | Hgb, Range [3]: 12.1 to 15.5 g/dL | WBC, Range [3]: 3.7-7.0 x103cells/µL | ALT, QR(25) [3, 4]: 130.75 U/L | AST, QR(25) [3, 4]: 232.75 U/L | HTC, QR(25) [3, 4]: 51.25% | Hgb, QR(25) [3, 4]: 13.1 g/dL | WBC, QR(25) [3, 4]: 3.925 x 10^3 cells/ul | ALT, QR(75) [3, 5]: 499.25 U/L | AST, QR(75) [3, 5]: 421.5 U/L | HTC, QR(75) [3, 5]: 55.5% | Hgb, QR(75) [3, 5]: 13.9 g/dL | WBC, QR(75) [3, 5]: 7.375 x 10^3 cells/ul | ALT, Max [3, 6]: 766 U/L | AST, Max [3, 6]: 685 U/L | HTC, Max [3, 6]: 62% | Hgb, Max [3, 6]: 15.5 g/dL | WBC, Max [3, 6]: 8.2 x 10^3 cells/ul | ALT, Median [3, 7]: 256.5 U/L | AST, Median [3, 7]: 326 U/L | HTC, Median [3, 7]: 54% | Hgb, Median [3, 7]: 13.6 g/dL | WBC, Median [3, 7]: 5.5 x 10^3 cells/ul | ALT, Min [3, 8]: 88 U/L | AST, Min [3, 8]: 200 U/L | HTC, Min [3, 8]: 47% | Hgb, Min [3, 8]: 12.1 g/dL | WBC, Min [3, 8]: 3.7 x 10^3 cells/ul | Alanine Aminotransferase (ALT) [3, 9]: 766 U/dL and 263 U/dL and 250 U/dL and 88 U/dL and 91 U/dL and 578 U/dL | Aspartate Aminotransferase (AST) [3, 9]: 685 U/dL and 372 U/dL and 280 U/dL and 200 U/dL and 217 U/dL and 438 U/dL | Hematocrit HTC [3, 9]: 58% and 54% and 62% and 47% and 56% and 52% and 48% and 51% | White Blood Cells WBC [3, 9]: 7.7 x 10^3 cells/ul and 8.2 x 10^3 cells/ul and 4.7 x 10^3 cells/ul and 3.8 x 10^3 cells/ul and 4.3 x 10^3 cells/ul and 3.7 x 10^3 cells/ul and 7 x 10^3 cells/ul and 6.3 x 10^3 cells/ul and 7.5 x 10^3 cells/ul
